Publication PMC6467514 (Chembiochem : a European journal of chemical biology, 2019)
One block for each compound: values may come before it.

Tests used:
[1] = biological target: T1, adenosine deaminase (ADA) (Bos taurus, UniProt P56658); test: stopped-flow fluorescence kinetics of deamination to tzG; type: biochemical
T1 sequence (P56658 2-363): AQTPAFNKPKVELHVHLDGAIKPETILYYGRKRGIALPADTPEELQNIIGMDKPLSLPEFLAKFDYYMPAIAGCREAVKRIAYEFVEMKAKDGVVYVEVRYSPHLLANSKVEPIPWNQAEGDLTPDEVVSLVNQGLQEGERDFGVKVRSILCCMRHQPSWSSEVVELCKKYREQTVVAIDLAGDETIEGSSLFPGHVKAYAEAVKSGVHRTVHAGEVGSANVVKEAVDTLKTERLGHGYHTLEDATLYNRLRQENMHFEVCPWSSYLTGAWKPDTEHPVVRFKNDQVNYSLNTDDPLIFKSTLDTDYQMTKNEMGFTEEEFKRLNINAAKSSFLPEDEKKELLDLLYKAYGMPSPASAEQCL

[2] = biological target: T1, adenosine deaminase (ADA); test: fluorescence assay of tzA to tzI deamination, IC50 with Hill fit; type: biochemical
[3] = biological target: T1, adenosine deaminase (ADA); test: biochemical
[4] = biological target: T1, adenosine deaminase (ADA); test: fluorescence assay of tzA to tzI deamination, IC50 with Hill fit; type: biochemical; remark: listed apart in the source

SMILES: Nc1nc(N)c2nsc([C@@H]3O[C@H](CO)[C@@H](O)[C@H]3O)c2n1 [tz2-AA]
stopped-flow fluorescence kinetics of deamination to tzG [1]: the ^tz2-AA HMM curve showed parabolic behaviour with increasing substrate concentration

IC50 [2]: 220 ± 70 µM
SMILES: OC[C@H]1O[C@@H](n2cnc3c(NCc4ccccc4)cc(Cl)nc32)[C@H](O)[C@@H]1O [compound 11, 5-chloro-7-benzylamino-1-deaza-purine riboside]

IC50 [3]: 0.0232 ± 0.0042 µM
SMILES: CCCCCC[C@H]([C@H](C)O)n1cnc2c(N)ncnc21 [EHNA]

IC50 [4]: 21 ± 8 µM
SMILES: CNc1cc(Cl)nc2c1ncn2[C@@H]1O[C@H](CO)[C@@H](O)[C@H]1O [compound 8, 5-chloro-7-methylamino-1-deaza-purine riboside]
